# Patent publication US11548871B2, “Triazole carbamate pyridyl sulfonamides as LPA receptor antagonists and uses thereof” (Gilead Sciences, Inc., priority 2019, dated 2023)
# Biological target: human LPAR1 (Homo sapiens, UniProt Q92633)
# Assay: LPAR1 intracellular calcium mobilization assay (antagonist mode)
# human LPAR1, sequence (Q92633 whole entry): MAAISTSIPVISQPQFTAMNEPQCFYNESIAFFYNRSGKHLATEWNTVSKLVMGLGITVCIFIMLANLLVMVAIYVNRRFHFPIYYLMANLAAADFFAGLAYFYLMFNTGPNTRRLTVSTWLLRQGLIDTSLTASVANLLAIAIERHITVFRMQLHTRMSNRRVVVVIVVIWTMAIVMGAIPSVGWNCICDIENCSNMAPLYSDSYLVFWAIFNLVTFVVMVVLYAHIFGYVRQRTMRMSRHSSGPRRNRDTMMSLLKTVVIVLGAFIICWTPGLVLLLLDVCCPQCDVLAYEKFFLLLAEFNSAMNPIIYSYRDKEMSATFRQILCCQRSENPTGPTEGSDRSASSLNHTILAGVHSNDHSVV
row,Compound,EC50 [nM]
1,"Cc1nc(-c2nnn(C)c2NC(=O)OC(C2CCCCC2)C(F)(F)F)ccc1NS(C)(=O)=O (stereo not drawn) [Compound 48, 1-cyclohexyl-2,2,2-trifluoroethyl (1-methyl-4-(6-methyl-5-(methylsulfonamido)pyridin-2-yl)-1H-1,2,3-triazol-5-yl)carbamate]",162
2,"Cc1nc(-c2nnn(C)c2NC(=O)OCc2ccccc2Cl)ccc1NS(C)(=O)=O [Compound 40, 2-chlorobenzyl (1-methyl-4-(6-methyl-5-(methylsulfonamido)pyridin-2-yl)-1H-1,2,3-triazol-5-yl)carbamate]",87
3,"Cn1nnc(-c2ccc(NS(C)(=O)=O)cn2)c1NC(=O)O[C@@H](c1ccccc1)C(F)F [Compound 15, (S)-2,2-difluoro-1-phenylethyl (1-methyl-4-(5-(methylsulfonamido)pyridin-2-yl)-1H-1,2,3-triazol-5-yl)carbamate]",8.2
4,"Cc1nc(-c2nnn(C)c2NC(=O)OC(C)c2cncc(Cl)c2)ccc1NS(C)(=O)=O (stereo not drawn) [Compound 83, 1-(5-chloropyridin-3-yl)ethyl (1-methyl-4-(6-methyl-5-(methylsulfonamido)pyridin-2-yl)-1H-1,2,3-triazol-5-yl)carbamate]",623
5,"Cc1nc(-c2nnn(C)c2NC(=O)OCCCC(C)C)ccc1NS(C)(=O)=O [Compound 29, 4-methylpentyl (1-methyl-4-(6-methyl-5-(methylsulfonamido)pyridin-2-yl)-1H-1,2,3-triazol-5-yl)carbamate]",325
6,"Cc1nc(-c2nnn(C)c2NC(=O)O[C@H](C)c2cc(Cl)sc2Cl)ccc1NS(C)(=O)=O [Compound 52, (R)-1-(2,5-dichlorothiophen-3-yl)ethyl (1-methyl-4-(6-methyl-5-(methylsulfonamido)pyridin-2-yl)-1H-1,2,3-triazol-5-yl)carbamate]",16.7
7,"C[C@@H](OC(=O)Nc1c(-c2ccc(NS(C)(=O)=O)cn2)nnn1C)c1cccnc1Cl [Compound 23, (R)-1-(2-chloropyridin-3-yl)ethyl (1-methyl-4-(5-(methylsulfonamido)pyridin-2-yl)-1H-1,2,3-triazol-5-yl)carbamate]",36
8,"Cn1nnc(-c2ccc(NS(C)(=O)=O)c(F)n2)c1NC(=O)O[C@@H](c1ccccc1)C(F)F [Compound 6, (S)-2,2-difluoro-1-phenylethyl (4-(6-fluoro-5-(methylsulfonamido)pyridin-2-yl)-1-methyl-1H-1,2,3-triazol-5-yl)carbamate]",71.3
9,"Cc1nc(-c2nnn(C)c2NC(=O)O[C@H](CF)c2cccc(F)c2)ccc1NS(C)(=O)=O [Compound 43, (S)-2-fluoro-1-(3-fluorophenyl)ethyl (1-methyl-4-(6-methyl-5-(methylsulfonamido)pyridin-2-yl)-1H-1,2,3-triazol-5-yl)carbamate]",18.4
10,"Cc1nc(-c2nnn(C)c2NC(=O)O[C@H](CF)c2ccccc2)ccc1NS(C)(=O)=O [Compound 59, (S)-2-fluoro-1-phenylethyl (1-methyl-4-(6-methyl-5-(methylsulfonamido)pyridin-2-yl)-1H-1,2,3-triazol-5-yl)carbamate]",37.7
11,"C[C@@H](OC(=O)Nc1c(-c2ccc(NS(C)(=O)=O)c(F)n2)nnn1C)c1ccccc1 [Compound 3, (R)-1-phenylethyl (4-(6-fluoro-5-(methylsulfonamido)pyridin-2-yl)-1-methyl-1H-1,2,3-triazol-5-yl)carbamate]",166
12,"Cc1nc(-c2nnn(C)c2NC(=O)OCc2cc(F)ccc2F)ccc1NS(C)(=O)=O [Compound 36, 2,5-difluorobenzyl (1-methyl-4-(6-methyl-5-(methylsulfonamido)pyridin-2-yl)-1H-1,2,3-triazol-5-yl)carbamate]",220
13,"Cc1nc(-c2nnn(C)c2NC(=O)OCc2cccc(Cl)c2)ccc1NS(C)(=O)=O [Compound 39, 3-chlorobenzyl (1-methyl-4-(6-methyl-5-(methylsulfonamido)pyridin-2-yl)-1H-1,2,3-triazol-5-yl)carbamate]",89.5
14,"Cc1nc(-c2nnn(C)c2NC(=O)OCc2cccc(F)c2)ccc1NS(C)(=O)=O [Compound 91, 3-fluorobenzyl(1-methyl-4-(6-methyl-5-(methylsulfonamido)pyridin-2-yl)-1H-1,2,3-triazol-5-yl)carbamate]",72.6
15,"Cn1nnc(-c2ccc(NS(C)(=O)=O)cn2)c1NC(=O)OCc1cccc(Cl)c1 [Compound 20, 3-chlorobenzyl (1-methyl-4-(5-(methylsulfonamido)pyridin-2-yl)-1H-1,2,3-triazol-5-yl)carbamate]",117
16,"Cc1nc(-c2nnn(C)c2NC(=O)O[C@H](CF)c2cccc(Cl)c2)ccc1NS(C)(=O)=O [Compound 25, (S)-1-(3-chlorophenyl)-2-fluoroethyl (1-methyl-4-(6-methyl-5-(methylsulfonamido)pyridin-2-yl)-1H-1,2,3-triazol-5-yl)carbamate]",18.7
17,"Cc1nc(-c2nnn(C)c2NC(=O)OC(C)c2cccnc2F)ccc1NS(C)(=O)=O (stereo not drawn) [Compound 79, 1-(2-fluoropyridin-3-yl)ethyl (1-methyl-4-(6-methyl-5-(methylsulfonamido)pyridin-2-yl)-1H-1,2,3-triazol-5-yl)carbamate]",589
18,"Cc1nc(-c2nnn(C)c2NC(=O)OC(C)c2cncc(F)c2Cl)ccc1NS(C)(=O)=O (stereo not drawn) [Compound 78, 1-(4-chloro-5-fluoropyridin-3-yl)ethyl (1-methyl-4-(6-methyl-5-(methylsulfonamido)pyridin-2-yl)-1H-1,2,3-triazol-5-yl)carbamate]",378
19,Cc1nc(-c2nnn(C)c2NC(=O)N[C@H](C)c2ccccc2)ccc1NS(C)(=O)=O [Compound 64],2740

# Continued, values first:
row,EC50 [nM],Compound
1,272,"Cc1nc(-c2nnn(C)c2NC(=O)OC(C)c2cc(Br)cnc2Cl)ccc1NS(C)(=O)=O (stereo not drawn) [Compound 130, 1-(5-bromo-2-chloropyridin-3-yl)ethyl (1-methyl-4-(6-methyl-5-(methylsulfonamido)pyridin-2-yl)-1H-1,2,3-triazol-5-yl)carbamate]"
2,86.1,"Cc1nc(-c2nnn(C)c2NC(=O)O[C@H](C)c2cc(F)ncc2Cl)ccc1NS(C)(=O)=O [Compound 123, (R)-1-(5-chloro-2-fluoropyridin-4-yl)ethyl (1-methyl-4-(6-methyl-5-(methylsulfonamido)pyridin-2-yl)-1H-1,2,3-triazol-5-yl)carbamate]"
3,81.7,"CNS(=O)(=O)Nc1ccc(-c2nnn(C)c2NC(=O)O[C@H](C)c2cc(F)cnc2Cl)nc1 [Compound 162, (R)-1-(2-chloro-5-fluoropyridin-3-yl)ethyl (1-methyl-4-(5-((N-methylsulfamoyl)amino)pyridin-2-yl)-1H-1,2,3-triazol-5-yl)carbamate]"
4,313,"Cc1nc(-c2nnn(C)c2NC(=O)O[C@H](C)c2cccc(F)c2)ccc1NS(=O)(=O)C1CC1 [Compound 106, (R)-1-(3-fluoro-phenyl)ethyl(4-(5-(cyclopropane-sulfonamido)-6-methylpyridin-2-yl)-1-methyl-1H-1,2,3-triazol-5-yl)carbamate]"
5,278,"C[C@@H](OC(=O)Nc1c(-c2ccc(NS(C)(=O)=O)c(Cl)n2)nnn1C)c1cccnc1Cl [Compound 154, (R)-1-(2-chloropyridin-3-yl)ethyl (4-(6-chloro-5-(methylsulfonamido)pyridin-2-yl)-1-methyl-1H-1,2,3-triazol-5-yl)carbamate]"
6,78.1,"C[C@@H](OC(=O)Nc1c(-c2cc(F)c(NS(C)(=O)=O)cn2)nnn1C)c1cccnc1Cl [Compound 158, (R)-1-(2-chloropyridin-3-yl)ethyl (4-(4-fluoro-5-(methylsulfonamido)pyridin-2-yl)-1-methyl-1H-1,2,3-triazol-5-yl)carbamate]"
7,1080,"Cc1nc(-c2nnn(C)c2NC(=O)OC(C)c2cccnc2C(F)F)ccc1NS(C)(=O)=O (stereo not drawn) [Compound 124, 1-(2-(difluoromethyl)pyridin-3-yl)ethyl (1-methyl-4-(6-methyl-5-(methylsulfonamido)pyridin-2-yl)-1H-1,2,3-triazol-5-yl)carbamate]"
8,2980,"Cc1nc(-c2nnn(C)c2NC(=O)O[C@H](C)c2ccnn2C)ccc1NS(C)(=O)=O [Compound 135, (R)-1-(1-methyl-1H-pyrazol-5-yl)ethyl (1-methyl-4-(6-methyl-5-(methylsulfonamido)pyridin-2-yl)-1H-1,2,3-triazol-5-yl)carbamate]"
9,1300,"Cc1nc(-c2nnn(C)c2NC(=O)O[C@H](C)c2cc(F)cnc2C#N)ccc1NS(C)(=O)=O [Compound 152, 1-(2-cyano-5-fluoropyridin-3-yl)ethyl (1-methyl-4-(6-methyl-5-(methylsulfonamido)pyridin-2-yl)-1H-1,2,3-triazol-5-yl)carbamate]"
10,207,"C[C@@H](OC(=O)Nc1c(-c2ccc(NS(C)(=O)=O)c(F)n2)nnn1C)c1cccnc1Cl [Compound 153, (R)-1-(2-chloropyridin-3-yl)ethyl (4-(6-fluoro-5-(methylsulfonamido)pyridin-2-yl)-1-methyl-1H-1,2,3-triazol-5-yl)carbamate]"
11,705,"Cc1nc(-c2nnn(C)c2NC(=O)O[C@H](C)c2cccc(F)c2)ccc1NS(=O)(=O)C1COC1 [Compound 109, (R)-1-(3-fluoro-phenyl)ethyl (1-methyl-4-(6-methyl-5-(oxetane-3-sulfonamido)pyridin-2-yl)-1H-1,2,3-triazol-5-yl)carbamate]"
12,88.4,"Cc1nc(-c2nnn(C)c2NC(=O)O[C@H](C)c2ccccc2Cl)ccc1NS(=O)(=O)CC#N [Compound 102, (R)-1-(2-chloro-phenyl)ethyl (4-(5-((cyano-methyl)sulfonamido)-6-methyl-pyridin-2-yl)-1-methyl-1H-1,2,3-triazol-5-yl)carbamate]"
13,461,"CC(OC(=O)Nc1c(-c2ccc(NS(C)(=O)=O)cn2)nnn1C)c1c(F)ccnc1Cl (stereo not drawn) [Compound 121, 1-(2-chloro-4-fluoropyridin-3-yl)ethyl (1-methyl-4-(5-(methylsulfonamido)pyridin-2-yl)-1H-1,2,3-triazol-5-yl)carbamate]"
14,723,"Cc1nc(-c2nnn(C)c2NC(=O)O[C@H](C)c2cccnc2C)ccc1NS(C)(=O)=O [Compound 141, (R)-1-(2-methylpyridin-3-yl)ethyl (1-methyl-4-(6-methyl-5-(methylsulfonamido)pyridin-2-yl)-1H-1,2,3-triazol-5-yl)carbamate]"
